Reference: paper PMC6511062, “Preclinical candidate for the treatment of visceral leishmaniasis that acts through proteasome inhibition” (Proceedings of the National Academy of Sciences of the …, 2019)
In brackets after ≈: the same amount, converted by molar mass. Like-named read-outs stand apart in the source and are kept apart here.

Key:
[1] = CAD (charged aerosol detector) solubility
[2] = Solubility in fasted simulated intestinal fluid (FaSSIF); settings: fasted simulated intestinal fluid (FaSSIF), fassif
[3] = tested on: THP-1 cells; assay: Mammalian cell growth inhibition (THP-1); type: cell-based; settings: Homo sapiens
Excerpt: We hypothesized that, in view of their structural similarity, 1 and 2 probably shared the same mechanism of action.

[4] = Intrinsic clearance in mouse liver microsomes; type: in vitro ADME
Description: page 13: 4. Parasite assays T. cruzi4, Leishmania donovani axenic amastigote, cidal axenic amastigote and intra- macrophage drug sensitivity assays were conducted as previously described5,6. a. […] Instead of a single readout at 72 h, multiple identical plates were used and read at different time points (24, 48, 72 h). Rate of kill curves showing the luminescence signal at each time point for each concentration were plotted. 5. […] The rate of intrinsic clearance (CLint) of each test compound was then calculated using the following calculation: CLint(mL/min/g liver) = k x V x Microsomal protein yield Where V (mL/mg protein) is the incubation volume/mg protein added and microsomal protein yield is taken as 52.5 mg protein/g liver. Verapamil (0.5 μM) was used as a positive control to confirm acceptable assay performance. 6. Pharmacokinetic studies. a. Mouse and dog PK Mouse pharmacokinetic studies were conducted in male CD-1 mice and male beagle dogs. 3 animals per group were used for each study performed. A dose of 3 mg/kg was administered intravenously, in a bolus form to mice and infused over a 30 min period to dogs. For all the intravenous studies compound were dissolved in 5% DMSO/20% kleptose in saline. A dose of 10 mg/kg was orally administered by gavage to the two species in a suspension of 1% methylcellulose to investigate oral pharmacokinetics. S13

[5] = tested on: L. donovani promastigotes; assay: microbe, parasite or virus in culture; type: cell-based, Leishmania donovani
Description: 9. Mode of action studies a. Cell lines and culture conditions […]
c. Generation of drug-resistant parasites […]
donovani in the continuous presence of this compound. Starting at a sub-lethal […]
After a total of 120 days in
Genomic DNA was harvested from three independently generated L. donovani resistant clones and an age match control, as previously described27. PCR was performed using Platinum PCR Supermix (Invitrogen), as per manufacturer’s […]
generated using primers SubunitB4FW and SubunitB4RV, then sequenced using primer SubunitB4FW (Table S6). To sequence the β5 subunit (LdBPK_361730.1), an […]
sequenced using primer SubunitB5FW. PCR amplification and DNA sequencing were performed in triplicate for each independently generated cell line. The Leishmania donovani BPK282A1 sequences of the two subunits were identified in TriTrypDB and […]
e. Generation of overexpression constructs and LdBOB transgenic cell lines The genes encoding the mutated versions of the β4 (LdBPK_360340.1) and the β5 […]
parasites, were synthesised (GeneArt, Thermo Fischer Scientific). The synthetic genes, flanked by BamHI sites were cloned into the equivalent site of pIR1-SAT. The accuracy of all assembled constructs was verified by sequencing.
Mid-log-phase L. donovani promastigotes (LdBOB) were transfected with overexpression constructs using the Human T-Cell Nucleofector kit and the Amaxa Nucleofector electroporator (program V-033). Following transfection, cells were […]
to appropriate drug selection (100 µg/mL nourseothricin). Cloned cell lines were […]
selection for one passage prior to experiments. […]

[6] = tested on: L. donovani intramacrophage amastigotes; assay: L. donovani intramacrophage assay (amastigotes in differentiated THP-1 cells); type: cell-based, Leishmania donovani; settings: Leishmania donovani; L. donovani amastigotes in differentiated THP-1 cells; read-out: Intramacrophage EC50
Description: T. cruzi4, Leishmania donovani axenic amastigote, cidal axenic amastigote and intra-
macrophage drug sensitivity assays were conducted as previously described5,6. […]
5. Intrinsic clearance (CLint) […]
6. Pharmacokinetic studies. […]

[7] = tested on: TA1535
Description: (§1) oxidative metabolism system (S9-mix). The maximum concentration tested and […]
(§2) Compound 7a was tested in a bacterial mutation screening assay (Ames test) with Salmonella typhimurium TA1535, TA1537, TA98, TA100 and Escherichia coli WP2uvrA(pKM101) in the presence and absence of an exogenous mammalian […]
(§3) The bacterial mutation screening assay was a plate incorporation test carried out as previously described15 and according to current methodology. […]

[8] = tested on: TA100
Description: as §1, §2, §3

[9] = Leishmania donovani, RES II-resistant cells
[10] = Leishmania donovani, WT promastigotes
[11] = with S9-mix, dose level 50 per plate
[12] = with S9-mix, dose level 150 per plate
[13] = with S9-mix, dose level 500 per plate
[14] = with S9-mix, dose level 1500 per plate
[15] = with S9-mix, dose level 2500 per plate
[16] = with S9-mix, dose level 5000 per plate
[17] = without S9-mix, dose level 50 per plate
[18] = without S9-mix, dose level 150 per plate
[19] = without S9-mix, dose level 500 per plate
[20] = without S9-mix, dose level 1500 per plate
[21] = without S9-mix, dose level 2500 per plate
[22] = without S9-mix, dose level 5000 per plate

With O=C(Nc1ccc(F)c(-c2cn3nc(-c4ccccc4)cnc3n2)c1)N1CCCC1 [Compound 7] the solubility [1] was 7 µg/mL (≈ 17.4 µM), the solubility [2] was 1 µg/mL (≈ 2.48 µM) and the EC50 [3] was over 50000 nM. For the same compound, the CLint [4] was 1.7 mL/min/g, the EC50 [5, 9] was over 1000 nM and the EC50 [5, 10] was 3.5 ± 0.09 nM. It also gave an EC50 ([5]; Leishmania donovani, WT, overexpression experiment (Fig. 3D)) of 9.4 ± 0.14 nM, an EC50 ([5]; Leishmania donovani, β4MUT cells (overexpressing β4 T30A)) of 11.2 ± 0.2 nM and an EC50 ([5]; Leishmania donovani, β5MUT cells (overexpressing β5 G197C)) of 37.6 ± 0.6 nM. For the same compound, the “resistance of compound 7-resistant clones” value ([5]; resistant clones vs WT) was over 100 fold, the “reduction of susceptibility on overexpression of mutated β5 subunit” value ([5]; β5 G197C overexpression vs WT) was “fourfold” and the EC50 [6] was 350 nM.

In the case of O=C(Nc1ccc(F)c(-c2ccn3c(N4CCOCC4)cnc3n2)c1)N1CCCC1 [Compound 8], the “Mean revertants per plate” value [7, 11] is reported as 12.0, the “Mean revertants per plate” value [7, 12] is reported as 10.0 and the “Mean revertants per plate” value [7, 13] is reported as 17.5. The “Mean revertants per plate” value [7, 14] was 13.5, the “Mean revertants per plate” value [7, 15] was 12.5 and the “Mean revertants per plate” value [7, 16] was 9.0. The “Mean revertants per plate” value [7, 17] was 19.0, the “Mean revertants per plate” value [7, 18] was 15.0 and the “Mean revertants per plate” value [7, 19] was 21.5. For the same compound, the “Mean revertants per plate” value [7, 20] was 16.0, the “Mean revertants per plate” value [7, 21] was 15.5 and the “Mean revertants per plate” value [7, 22] was 18.0. For the same compound, the “Mean revertants per plate” value [8, 11] was 123.0, the “Mean revertants per plate” value [8, 12] was 96.5 and the “Mean revertants per plate” value [8, 13] was 106.5. The “Mean revertants per plate” value [8, 14] was 118.0, the “Mean revertants per plate” value [8, 15] was 101.0 and the “Mean revertants per plate” value [8, 16] was 122.5. For the same compound, the “Mean revertants per plate” value [8, 17] was 99.0, the “Mean revertants per plate” value [8, 18] was 97.0 and the “Mean revertants per plate” value [8, 19] was 86.0. For the same compound, the “Mean revertants per plate” value [8, 20] was 109.5, the “Mean revertants per plate” value [8, 21] was 91.5 and the “Mean revertants per plate” value [8, 22] was 94.5. For the same compound, the solubility [1] was 231 µg/mL (≈ 563 µM), the solubility [2] was 180 µg/mL (≈ 439 µM) and the EC50 [3] was over 50000 nM. The CLint [4] was 0.77 mL/min/g, the “CLint (intrinsic clearance when incubated with mouse liver microsomes)” value [4] was 0.8 mL/min per gram and the EC50 [5, 9] was over 1000 nM. The EC50 [5, 10] was 14.6 ± 0.3 nM, the EC50 ([5]; WT promastigotes) was 14 nM and the EC50 [6] was 1600 nM.
